Source: patent US7129250B2, “Neuroprotective and anti-proliferative compounds” (Aegera Therapeutics Inc., priority 2000, dated 2006)
Where “and” joins values, the source holds several entries; their conditions need not be identical. Equal entries are not always repeated.

Legend:
SCG neurons = test: NGF Withdrawal Killing of SCG Neurons; assay type: cell-based, Sprague-Dawley rats; settings: Rattus norvegicus, Neuron, assayed 48 hours after drug
Source text: Cultured Superiour Cervical Ganglion (SCG) neurons of the PNS which have been sustained in media containing Neuron Growth Factor (NGF) undergo apoptotic cell death upon removal of the NGF from the cellular medium. Loss of neuronal trofin support has been implicated in various neurodegenerative disease states in the PNS, such as diabetic neuropathy and neuropahies related to chemotherapeutic and anti-HIV drug treatment.
SCG neurons were harvested from day 1 post natal Sprague-Dawley rats, plated on collagen coated plates and incubated for 5 days in the presence of 50 ng/mL NGF at 37° C. under 5% CO2. The cells were washed with NGF free media, 4 times at 1 hour intervals, at which time drug was added.

SHSY-5Y cells = test: Etoposide Killing of SHSY-5Y; assay type: cell-based; settings: etoposide 32 uM
Experimental: SHSY-5Y cells were grown in growth media. Cells are placed at 50,000 cells per 96 well. Four days latter the cells were treated with drug for 48 hours prior to etoposide (32 uM) treatment. On day 6 media was changed to that containing etoposide and drug for 4 hours, at which point the media was changed to media containing drug only. Cells are allowed to survive overnight and then assessed for viability with metabolic activity measured (WST-1-Beohringer Mannheime), as shown in TABLE 13.

CGNs [1] = test: Cisplatin Killing of CGNs; assay type: cell-based, CD1 mice
Experimental: Cisplatin has been used extensively in the treatment of various cancers. One dosblimiting side effect of this chemotherapeutic agent is related to hearing loss as a result of its toxicity to auditory neurons and loss of feeling in the extremities. Cisplatin induces apoptosis to both cultured CGN and cortical neurons.
CGNs were harvested from day 8/9 post-natal CD1 mice, plated on Poly-D-Lycine coated plates and incubated for 6 days at 37° C. under 5% CO2. The cells were treated with media containing drug and cisplatin […].

CGNs [2] = test: β-Amyloid Aggregation Assay in CGNs; assay type: cell-based; settings: Mus musculus, 120 h; Aβ 25 μM; assayed 5 days after Aβ addition
Source text: Various mechanisms have been put forward in order to account for the neurotoxicity related to extracellular Aβ fibril formation. […] Regardless of the mode of action, extracellular Aβ fibril formation acts as an effective apoptotic trigger for neuronal cells and serves as an in vitro model for various neurodegenerative diseases characterized by extracellular protein fibril formation, typified by diseases such as AD and PD.
CGNs were harvested from day 8/9 post-natal CD1 mice, plated on Poly-D-Lycine coated plates and incubated for 6 days at 37° C. under 5% CO2. Pretreated cells were treated with drug 24 hours prior to A-β (25 μM) and drug addition.

CGNs [3] = test: High/Low Potassium (HK/LK) assay in CGNs; assay type: cell-based; settings: for IC50: Mus musculus, HK/LK switch, drug 24 h pre-treatment, assayed 16 h after media change, concentration at which cell death was inhibited by 50%
Experimental: Cultured CGNs which are maintained in a medium containing 26 mM potassium (high K^+ or HK) undergo cell death when the medium is changed to one containing 5 mM potassium (low K^+ or LK). HK maintains the cells in a highly polarized state, duplicating that of fully innervated neurons. The switch to LK (5 mM is more representative of physiological conditions) results in depolarization of the cells, mimicking the loss of neuronal conductivity. […] As these killer genes are turned on by various types of neuronal insult as observed in AD, PD, and stroke, HK/LK is a general in vitro model for neuronal degradation, blanketing a wide range of neurodegenerative diseases. Compounds that protect against HK/LK in CGNs would therefore be efficacious in treatment and/or prevention of various neurodegenerative disease states.
CGNs were harvested from day 8/9 post-natal CD1 mice, plated on Poly-D-Lycine coated plates and incubated for 6 days at 37° C., with […] potassium, under 5% CO2. Pretreated cells were treated with drug 24 hours prior to changing the media to one containing […] potassium and drug. Cells were assayed 16 hours after the final media change using cell TITER96 (Promega).

CGNs [4] = test: Ceramide Killing of CGNs; assay type: cell-based, CD1 mice; settings: ceramide 100 uM
Source text: Ceramide is a native […] found in most mammalian and human cells. The upregulation of endogenous ceramide has been linked to caspase 1 (ICE) induced apoptosis (Suzuki, A. et al. Exp. Cel. Res., 1997, 233, 41). In a similar fashion, the addition of ceramide to cultured CGNs results in caspase induced apoptosis, and is therefore considered an effective in vitro model for the various neurodegenerative diseases described above, which are characterized by caspase induced apoptosis, as observed in stroke models. Addition of selected compounds of the formula I through III, 24 hours prior to the addition of ceramide, to cultured CGNs provided protection against apoptosis, with 10 to 20% of the cells being saved at 1–10 μM drug concentrations (see Example 114).
CGNs were harvested from day 8/9 post-natal CD1 mice, plated on Poly-D-Lycine coated plates and incubated for 6 days at 37° C. under 5% CO2. Cells were pretreated with drug 24 hours prior to ceramide (100 uM) and drug addition.

CGNs [5] = test: Glutamate Killing of CGNs; assay type: cell-based, CD1 mice; settings: glutamate 100 uM
Source text: Glutaminergic neurons secrete the neurotransmitter glutamate as a part of normal cell signaling processes. Intracellular glutamate levels are regulated by glial cell uptake and conversion to glutamine. Under conditions of oxidative stress, as observed in various neurodegenerative diseases such as stroke, ALS, PD, and HD, glutaminergic neurons release massive amounts of glutamate into the […] fluid, overwhelming the surrounding cells. Stimulation of both NMDA and non NMDA-type glutamate excitory receptors leads to sustained depolarization of postsynaptic dendrosomal membranes, increased membrane permeability, and impaired ion homeostasis, all leading to either apoptotic or necrotic cell death.
CGNs were harvested from day 8/9 post-natal CD1 mice, plated on Poly-D-Lycine coated plates and incubated for 6 days at 37° C. under 5% CO2. Cells were pretreated with drug 24 hours prior to glutamate (100 uM) and drug addition.

Cortical neurons = test: Cisplatin Killing of Cortical Neurons; assay type: cell-based, Sprague-Dawley rats; settings: drug 10 μM 24 h pre-treatment
Experimental: Cortical neurons were harvested from day E18 female Sprague-Dawley rats, plated on Poly-L-Lycine coated plates and incubated for 14 days at 37° C. under 5% CO2. […]

HIAP1 mRNA in LAN5 cells = test: LAN5 HAIP1 Down Regulators (RNA levels); assay type: cell-based; settings: HIAP1 RNA level vs control = 1.0; 24 hours drug
Experimental: LAN5 cells were grown in growth media. Cells were plated at cells 50,000 per well in 96 cells per 96 wells. Five days latter drug was added and the cells were liced 24 hours latter using RLT buffer.

[6] = test system: DU145 prostate cancer cells; test: Anticancer Effectiveness on Prostate Tumor Cells (Alamar Blue); assay type: cell-based, Human; settings: for % Survival: 7 days
Experimental: Prostate cancer is often resistant to traditional chemotherapies. DU145 is representative prostated cancer cell line. DU145cells were cultured in the presence of various concentrations of compound 136.
Human prostate DUI45 cells were cultured in 96 well dishes. Cells were treated with various concentrations of test compounds for 7 days. Media was then removed and replaced with fresh media containing Alamar Blue. The cells were incubated for a further 4 hours and Alamar blue and conversion was assessed by fluorescence. Compound effectiveness was determined by assessing the reduction in Alamar blue bioconversion following 7 day treatment.

[7] = Mus musculus, assayed 48 hours after final drug treatment

O=C1NC(=O)C(n2ccc3ccccc32)=C1c1c[nH]c2ccccc12 [Compound 1, 3-(indol-1-yl)-4-(1H-indol-3-yl)-1H-pyrrole-2,5-dione]
melting point: 212 to 213 °C | IC50 (SCG neurons): 20 µM | % SHSY-5Y cell survival (SHSY-5Y cells; drug 1 μM): 0% | % SHSY-5Y cell survival (SHSY-5Y cells; drug 10 μM): 12.5% | IC50 (CGNs [1]; [7]): 10 µM

COc1ccc2[nH]cc(C3=C(n4ccc5ccccc54)C(=O)NC3=O)c2c1 [Compound 2, 3-(5-Methoxyindol-3-yl)-4-(indol-1-yl)-1H-pyrrole-2,5-dione]
IC50 (CGNs [2]): 10 µM | IC50 (CGNs [1]; [7]): 10 µM

O=C1NC(=O)C(n2ccc3ccccc32)=C1c1c[nH]c2ccc(OCc3ccccc3)cc12 [Compound 5, 3-(5-Benzyloxy-1H-indol-3-yl)-4-(indol-1-yl)-pyrrole-2,5-dione]
melting point: 217 to 220 °C | IC50 (CGNs [1]; [7]): 10 µM

O=C1NC(=O)C(n2ccc3cc(OCc4ccccc4)ccc32)=C1c1c[nH]c2ccccc12 [Compound 12, 3-(5-benzyloxyindol-1-yl)-4-(1H-indol-3-yl)-1H-pyrrole-2,5-dione]
melting point: 114 to 116 °C

O=C1NC(=O)C(n2ccc3ccccc32)=C1c1c[nH]c2ccc(C#Cc3ccccc3)cc12 [Compound 15, 3-(Indol-1-yl)-4-(5-(β-phenylethynyl)-indol-3-yl)-pyrrole-2,5dione]
melting point: 141 to 144 °C

O=C1NC(=O)C2=C1c1c([nH]c3ccccc13)C1Cc3ccccc3N21 (centres unmarked) [Compound 24]
IC50 (CGNs [3]): 10 µM | IC50 (CGNs [2]): 10 µM | IC50 (CGNs [1]; [7]): 3 µM | % CGN Survival (CGNs [4]; drug 1 μM): 11.4% | % CGN Survival (CGNs [4]; drug 10 μM): 10.7% | % CGN Survival (CGNs [5]; drug 100 nM): 0% | % CGN Survival (CGNs [5]; drug 1 μM): 17.0% | % CGN Survival (CGNs [5]; drug 10 μM): 22.3%

O=C1NC(=O)C2=C1c1c([nH]c3ccc(OCc4ccccc4)cc13)C1Cc3ccccc3N21 (centres unmarked) [Compound 35]
% Protection at 10 μM (Cortical neurons): 10% and 11% | survival (CGNs [1]; 300 nM drug, cisplatin): 80% | IC50 (CGNs [1]; cisplatin induced apoptosis in CGNs): 0.1 µM

COc1ccc2[nH]c3c(c4c(n5c6ccccc6cc35)C(=O)NC4=O)c2c1 [Compound 47]
inhibition of HK/LK cell death / protection of CGN neurons (CGNs [3]; 10 μM drug): (100% inhibition at 10 (μM) | IC50 (CGNs [3]): 3 µM | IC50 (SCG neurons): 10 µM | IC50 (CGNs [1]; [7]): 10 µM

COc1ccc2c(c1)c1c3c(n4c5ccccc5cc4c1n2C(=O)COC(C)=O)C(=O)NC3=O [Compound 51]
% Protection at 10 μM (Cortical neurons): 20% and 23% | IC50 (CGNs [1]; [7]): 1 µM

O=C1NC(=O)c2c1c1c3cc(OCc4ccccc4)ccc3[nH]c1c1cc3ccccc3n21 [Compound 52]
% Protection at 10 μM (Cortical neurons): 50% and 40% | IC50 (CGNs [1]; assayed 48 hours after final drug treatment): 3 µM

O=C1NC(=O)c2c1c1c3ccccc3[nH]c1c1nc3ccccc3n21 [Compound 53]
% Protection at 10 μM (Cortical neurons): 41%

CC(=O)n1cc(C2=CC(=O)NC2=O)c2cc(Br)ccc21 [Compound 57, 3-(N-acetyl-5-bromoindol-3-yl)-1H-pyrrole-2,5-dione]
melting point: 271 to 272.9 °C | Fold Induction (HIAP1 mRNA in LAN5 cells): 0.45

CN(C)C(=O)n1cc(C2=CC(=O)NC2=O)c2cc(Br)ccc21 [Compound 58, 3-(N-(N,N-dimethylcarbamoyl)-5-bromoindol-3-yl)-1H-pyrrole-2,5-dione]
melting point: 287 to 288 °C | Fold Induction (HIAP1 mRNA in LAN5 cells): 0.55

COc1ccc(C(=O)n2cc(C3=CC(=O)NC3=O)c3cc(OCc4ccccc4)ccc32)c(OC)c1 [Compound 67, 3-(N-(2,4-dimethoxybenzoyl)-5-benzyloxyindol-3-yl)-1H-pyrrole-2,5-dione]
IC50 (SCG neurons): 10 µM

COc1ccc2c(c1)c(C1=CC(=O)NC1=O)cn2S(=O)(=O)c1ccc(C)cc1 [Compound 87, 3-(N-tosyl-5-methoxyindol-3-yl)-1H-pyrrole-2,5-dione]
IC50 (CGNs [2]): 10 µM | % CGN Survival (CGNs [4]; drug 1 μM): 0% | % CGN Survival (CGNs [4]; drug 10 μM): 9.1% | Fold Induction (HIAP1 mRNA in LAN5 cells): 0.37 | % CGN Survival (CGNs [5]; drug 100 nM): 0% | % CGN Survival (CGNs [5]; drug 1 μM): 11.5%

Cc1ccc(S(=O)(=O)n2cc(C3=CC(=O)NC3=O)c3cc(O)ccc32)cc1 [Compound 91, 3-(N-tosyl-5-hydroxyindol-3-yl)-1H-pyrrole-2,5-dione]
IC50 (SCG neurons): 20 µM

O=C1C=C(c2cn(S(=O)(=O)c3cccs3)c3ccccc23)C(=O)N1 [Compound 97, 3-(N-(2-thiophenesulfonyl)indol-3-yl)-1H-pyrrole-2,5-dione]
IC50 (SCG neurons): 10 µM

COC(=O)C(C)(C)Cc1c(C2=CC(=O)NC2=O)c2cc(OCc3ccc4ccccc4n3)ccc2n1Cc1ccc(Cl)cc1 [Compound 109]
IC50 (SCG neurons): 10 µM

CN(C)CCCn1cc(C2=C(n3ccc4ccccc43)C(=O)NC2=O)c2cc(OCc3ccccc3)ccc21 [Compound 136]
cells killed ([6]; 10 μM, after 7 days): 100% | % Survival ([6]; 0.312 um): 102.71% | % Survival ([6]; 0.625 um): 97.00% | % Survival ([6]; 1.25 um): 99.61% | % Survival ([6]; 2.5 um): 81.81% | % Survival ([6]; 5 um): 66.75% | % Survival ([6]; 10 um): −1.64% | % Survival ([6]; 20 um): −1.00% | % Survival ([6]; 40 um): 1.17%

COC(=O)[C@@]1(O)C[C@H]2O[C@]1(C)n1c3ccccc3c3c4c(c5c6ccccc6n2c5c31)C(=O)NC4 [Compound K252a, K252a, reference compound]
toxicity (CGNs [3]; higher doses): toxic at higher doses | % SHSY-5Y cell survival (SHSY-5Y cells; drug 1 μM): 13.9% | % CGN Survival (CGNs [4]; 300 nM, (250 nM in source)): 0 (250 nM) % | Fold Induction (HIAP1 mRNA in LAN5 cells): 0.51 | % CGN Survival (CGNs [5]; 300 nM, (250 nM in source)): 4.3 (250 nM) %
